Data: patent publication US9303033B2, “Pyrazolopyrimidines and related heterocycles as CK2 inhibitors” (SENHWA BIOSCIENCES, INC., priority 2009, dated 2016)
pIC50: −log10 of the molar value. Where two headings read alike, the source gives them in different places.

Legend:
recombinant human PIM2 = recombinant human PIM2 (Homo sapiens (Human), UniProt Q9P1W9); assay: PIM-2 assay (33P-ATP filter binding); type: biochemical; conditions: for PIM2: % inh […]: at […] compound
MDAMB453 = assay: Cell proliferation assay with Alamar Blue (AB), MDAMB453; type: cell-based
Method: (§1) A representative cell-proliferation assay protocol using Alamar Blue dye (stored at 4° C., use 20 ul per well) is described hereafter.
(§2) a. Split and trypsinize cells.
(§3) b. Count cells using hemocytometer.
(§4) c. Plate 4,000-5,000 cells per well in 100 μl of medium and seed into a 96-well plate according to the following plate layout. Add cell culture medium only to wells B10 to B12.
(§5) d. Add 100 μl of 2× drug dilution to each well in a concentration shown in the plate layout above. […] Total volume is 200 μl/well.
(§6) e. Incubate four (4) days at 37° C., 5% CO2 in a humidified incubator.
(§7) f. Add […] Alamar Blue reagent to each well.
(§8) g. Incubate for four (4) hours at 37° C., 5% CO2 in a humidified incubator.
(§9) h. Record fluorescence at an excitation wavelength of 544 nm and emission wavelength of 590 nm using a microplate reader.
(§10) In the assays, cells are cultured with a test compound for approximately four days, the dye is then added to the cells and fluorescence of […] dye is detected after approximately four hours. Different types of cells can be utilized in the assays (e.g., HCT-116 human colorectal carcinoma cells, PC-3 human prostatic cancer cells, MDA-MB231 human breast cancer cells, K-562 human chronic myelogenous leukemia (CML) cells, MiaPaca human pancreatic carcinoma cells, MV-4 human acute myeloid leukemia cells, and BxPC3 human pancreatic adenocarcinoma cells).

[1] = system: BxPC3 human pancreatic adenocarcinoma cells; assay: Cell proliferation assay with Alamar Blue (AB), BxPC3; type: cell-based
Method: as §1, §2, §3, §4, §5, §6, §7, §8, §9, §10

CK2 ααββ = CK2 ααββ (Homo sapiens (Human), UniProt P68400); assay: CK2 assay (cell-free, 33P-ATP, phosphocellulose filter plate); type: biochemical
[2] = 5 um ATP, read-out: PIM2: IC50 (5 um ATP)
[3] = Homo sapiens, MDA-MB-453, MDAMB453 cells, read-out: AB: MDAMB453
[4] = Homo sapiens, BXPC-3, read-out: AB: BxPC3
[5] = MDAMB453 cells, read-out: AB: MDAMB453 IC50
[6] = read-out: PIM2: IC50 (5 μM ATP), 5 μM ATP
[7] = MDAMB453 cells, read-out: AB: MDAMB453
[8] = Tables 41B, 42B, read-out: PIM2: IC50
[9] = PIM2: IC50 (5 μM ATP), 5 μM ATP

Sequence of recombinant human PIM2 (Q9P1W9 whole entry): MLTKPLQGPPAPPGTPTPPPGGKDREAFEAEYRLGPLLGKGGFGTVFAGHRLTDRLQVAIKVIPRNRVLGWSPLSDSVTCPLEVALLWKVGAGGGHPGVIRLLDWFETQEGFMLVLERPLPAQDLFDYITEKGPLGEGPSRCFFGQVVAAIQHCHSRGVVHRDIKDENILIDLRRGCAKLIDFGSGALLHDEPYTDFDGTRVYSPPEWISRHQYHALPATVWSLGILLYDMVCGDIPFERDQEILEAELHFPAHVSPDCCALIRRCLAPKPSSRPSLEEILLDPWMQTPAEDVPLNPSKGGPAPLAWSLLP
Sequence of CK2 ααββ (P68400 whole entry): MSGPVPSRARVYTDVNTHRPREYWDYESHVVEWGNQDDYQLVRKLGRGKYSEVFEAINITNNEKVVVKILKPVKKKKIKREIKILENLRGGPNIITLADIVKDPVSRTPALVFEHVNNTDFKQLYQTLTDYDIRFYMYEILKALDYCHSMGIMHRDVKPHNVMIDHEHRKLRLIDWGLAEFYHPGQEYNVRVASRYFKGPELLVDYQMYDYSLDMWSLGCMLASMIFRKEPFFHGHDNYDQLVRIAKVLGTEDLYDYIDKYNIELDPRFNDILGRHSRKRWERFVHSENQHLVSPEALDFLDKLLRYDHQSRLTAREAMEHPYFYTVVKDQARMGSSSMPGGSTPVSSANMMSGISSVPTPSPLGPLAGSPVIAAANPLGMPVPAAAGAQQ
Sequence of CK2 ααββ (P67870 whole entry partner): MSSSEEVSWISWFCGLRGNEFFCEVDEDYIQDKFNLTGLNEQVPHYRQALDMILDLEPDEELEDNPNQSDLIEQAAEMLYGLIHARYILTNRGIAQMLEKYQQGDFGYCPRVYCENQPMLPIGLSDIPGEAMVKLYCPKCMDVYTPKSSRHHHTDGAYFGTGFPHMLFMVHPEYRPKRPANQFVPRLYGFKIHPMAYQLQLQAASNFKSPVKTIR

Compound | pIC50 (MDAMB453; [3]) | pIC50 [1, 4] | pIC50 (CK2 ααββ) | pIC50 (recombinant human PIM2; [9]) | other results
O=C1NC(=O)/C(=C/c2cnn3c(NC4CC4)cc(SCc4ccccc4)nc23)N1 | < 4.52 | 4.96 | > 8.00 |  | pIC50 (recombinant human PIM2; [2]): < 5.60
O=C1NC(=S)S/C1=C\c1cnn2c(NC3CC3)cc(-c3ccnc(F)c3)nc12 | < 4.52 | 4.64 | > 6.00 |  | pIC50 (recombinant human PIM2; [2]): 5.80
N#Cc1cccc(Cc2cc(NC3CC3)n3ncc(/C=C4\NC(=O)NC4=O)c3n2)c1 | < 4.52 | 4.71 | > 8.00 |  | pIC50 (recombinant human PIM2; [2]): < 5.60
CC(CNc1cc(Nc2ccc(C#N)cc2Cl)nc2c(C=C3NC(=O)NC3=O)cnn12)N1CCOCC1 (racemic) [Example 522] |  |  | > 8.00 |  | pIC50 (MDAMB453; [5]): 5.82; pIC50 ([1]; read-out: AB: BxPC3 IC50): 4.98
CC1CN(Cc2cc(-c3cc(NC4CC4)n4ncc(C=C5NC(=O)NC5=O)c4n3)cs2)CC(C)O1 (stereo not drawn) [Compound A14] |  |  | > 8.00 |  | pIC50 (recombinant human PIM2; [6]): 5.80; pIC50 (MDAMB453; [7]): 5.79; pIC50 ([1]; read-out: AB: BxPC3): 5.75
O=C1NC(=O)C(=Cc2cnn3c(NC4CC4)cc(-c4csc(CNC5CCCC5)c4)nc23)N1 [Compound B14] |  |  | > 8.00 |  | pIC50 (recombinant human PIM2; [6]): 5.84; pIC50 (MDAMB453; [7]): 5.79; pIC50 ([1]; read-out: AB: BxPC3): 6.00
Nc1cc(Nc2cccc(Cl)c2)nc2c(/C=C3\NC(=O)NC3=O)cnn12 [Example A1, 5-((7-amino-5-(3-chlorophenylamino)pyrazolo[1,5-a]pyrimidin-3-yl)methylene)imidazolidine-2,4-dione] | 5.61 | 4.78 | > 7.00 | 5.93 | 
CC(=O)NC1CCC(Nc2cc(NC3CC3)n3ncc(/C=C4\NC(=O)NC4=O)c3n2)CC1 (stereo not drawn) [Example A3] | < 4.52 | < 4.52 | > 8.00 |  | pIC50 (recombinant human PIM2; [6]): < 5.60
O=C1NC(=O)/C(=C/c2cnn3c(NC4CC4)cc(-c4cccc(OCCN5CCOCC5)c4)nc23)N1 [Example A4] | < 4.52 | < 4.52 | > 8.00 | < 5.60 | 
COc1cccc(-c2cc(NC3CC3)n3ncc(/C=C4\NC(=O)NC4=O)c3n2)c1 [Example A5] | 6.02 | 5.76 | > 8.00 |  | 
O=C1NC(=O)/C(=C/c2cnn3c(NC4CC4)cc(-c4cccc(OCCCO)c4)nc23)N1 [Example B4] | 5.10 | 5.10 | > 8.00 | 5.66 | 
CN(c1cccc(-c2cc(NC3CC3)n3ncc(/C=C4\NC(=O)NC4=O)c3n2)c1)S(C)(=O)=O [Example B5] | 4.57 | 5.27 | > 8.00 | < 5.60 | 
O=C1NC(=O)/C(=C/c2cnn3c(NC4CCCC4)cc(Nc4cccc(Cl)c4)nc23)N1 [Example B6] | 4.98 | < 4.52 |  |  | 
CC(C)(C)OC(=O)c1cccc(Nc2cc(Nc3cccc(Cl)c3)nc3c(/C=C4\NC(=O)NC4=O)cnn23)c1 [Example B7] | 5.11 | 4.99 | > 8.00 | < 5.60 | 
Cc1c(Nc2cccc(Cl)c2)nc2c(C=C3NC(=O)NC3=O)cnn2c1NC1CC1 [Example B46] |  |  | > 8.00 |  | PIM2: % inh […] (recombinant human PIM2): 47.606%; pIC50 (MDAMB453; [5]): 4.62; pIC50 ([1]; read-out: AB: BxPC3 IC50): < 4.52

Continued, in another order:

pIC50 (MDAMB453; [3]) | pIC50 [1, 4] | pIC50 (CK2 ααββ) | pIC50 (recombinant human PIM2; [9]) | Compound | other results
 |  | > 8.00 |  | O=C1NC(=O)C(=Cc2cnn3c(NC4CC4)cc(Oc4cccc(Cl)c4)nc23)N1 [Compound U38] | pIC50 (recombinant human PIM2; [8]): < 5.60; pIC50 (MDAMB453; [5]): 4.97; pIC50 ([1]; read-out: AB: BxPC3 IC50): 4.68
 |  | > 8.00 |  | N#Cc1ccc(Oc2cc(NC3CC3)n3ncc(C=C4NC(=O)NC4=O)c3n2)c(Cl)c1 [Compound V38] | pIC50 (recombinant human PIM2; [8]): < 5.60; pIC50 (MDAMB453; [5]): 5.86; pIC50 ([1]; read-out: AB: BxPC3 IC50): 5.28
 |  | > 8.00 |  | O=C1NC(=O)C(=Cc2cnn3c(NC4CC4)cc(-c4csc(CN5CCCC5)c4)nc23)N1 [Compound Y13] | pIC50 (recombinant human PIM2; [6]): < 5.60; pIC50 (MDAMB453; [7]): 5.86; pIC50 ([1]; read-out: AB: BxPC3): 6.03
 |  | > 8.00 |  | CN(C)C1CCN(Cc2cc(-c3cc(NC4CC4)n4ncc(C=C5NC(=O)NC5=O)c4n3)cs2)C1 (stereo not drawn) [Compound Z13] | pIC50 (recombinant human PIM2; [6]): < 5.60; pIC50 (MDAMB453; [7]): 5.60; pIC50 ([1]; read-out: AB: BxPC3): 4.99
5.98 | 4.82 | > 8.00 | < 5.60 | O=C1NC(=O)/C(=C/c2cnn3c(NC4CC4)cc(Nc4cccc(Cl)c4)nc23)N1 [Example C1] | pIC50 (recombinant human PIM2; read-out: PIM2: IC50): 5.89
5.83 | 5.48 | > 7.00 | 5.62 | CS(=O)(=O)Nc1cccc(-c2cc(NC3CC3)n3ncc(/C=C4\NC(=O)NC4=O)c3n2)c1 [Example C4] | 
5.94 | 5.42 |  |  | CCOCCNc1cc(Nc2cccc(Cl)c2)nc2c(/C=C3\NC(=O)NC3=O)cnn12 [Example C6] | 
5.19 | < 4.52 | > 8.00 | 5.84 | CN(C)C1CCN(C(=O)c2cccc(Nc3cc(Nc4cccc(Cl)c4)nc4c(/C=C5\NC(=O)NC5=O)cnn34)c2)C1 (stereo not drawn) [Example C7] | 
 |  | > 8.00 |  | Cc1c(Nc2ccc(C#N)cc2F)nc2c(C=C3NC(=O)NC3=O)cnn2c1NC1CC1 [Example C46] | PIM2: % inh […] (recombinant human PIM2): 59.266%; pIC50 (MDAMB453; [5]): 5.20; pIC50 ([1]; read-out: AB: BxPC3 IC50): 4.82
5.87 | 5.39 | > 8.00 | 5.66 | O=C1NC(=O)/C(=C/c2cnn3c(NC4CC4)cc(Nc4cccc(F)c4)nc23)N1 [Example D1] | 
5.98 | 4.63 | > 8.00 | < 5.60 | N#Cc1cccc(-c2cc(NC3CC3)n3ncc(/C=C4\NC(=O)NC4=O)c3n2)c1 [Example D4] | 
5.61 | 5.92 | > 7.00 | < 5.60 | CC(C)N1CCN(C(=O)c2cc(-c3cc(NC4CC4)n4ncc(/C=C5\NC(=O)NC5=O)c4n3)ccc2F)CC1 [Example D5] | 
6.14 | 5.72 | > 6.00 | 6.32 | O=C1NC(=O)/C(=C/c2cnn3c(NCCO)cc(Nc4cccc(Cl)c4)nc23)N1 [Example D6] | 
4.85 | < 4.52 | > 7.00 | < 5.60 | O=C1NC(=O)/C(=C/c2cnn3c(Nc4cccc(C(=O)O)c4)cc(Nc4cccc(Cl)c4)nc23)N1 [Example D7] | 
 |  | > 7.00 |  | CN1C(=O)NC(=Cc2cnn3c(NC4CC4)cc(Nc4ccc(C#N)cc4)nc23)C1=O [Example D42] | PIM2: % inh […] (recombinant human PIM2): −39.275%; pIC50 (MDAMB453; [5]): 6.16; pIC50 ([1]; read-out: AB: BxPC3 IC50): 5.55
 |  | > 8.00 |  | Cc1c(Nc2ccc(C#N)cc2Cl)nc2c(C=C3NC(=O)NC3=O)cnn2c1NC1CC1 [Example D46] | PIM2: % inh […] (recombinant human PIM2): 53.934%; pIC50 (MDAMB453; [5]): 5.20; pIC50 ([1]; read-out: AB: BxPC3 IC50): 4.52
4.75 | 4.77 | > 8.00 | < 5.60 | O=C1NC(=O)/C(=C/c2cnn3c(NC4CC4)cc(Nc4cccc(OC(F)(F)F)c4)nc23)N1 [Example E1] | 
5.93 | 4.93 | > 8.00 | < 5.60 | C=CCOc1cccc(-c2cc(NC3CC3)n3ncc(/C=C4\NC(=O)NC4=O)c3n2)c1 [Example E4] | 
6.44 | 5.52 | > 8.00 | 5.69 | CC(C)(C)OC(=O)N1CCN(C(=O)c2cccc(Nc3cc(Nc4cccc(Cl)c4)nc4c(/C=C5\NC(=O)NC5=O)cnn34)c2)CC1 [Example E7] | 
5.38 | 4.96 | > 8.00 |  | O=C1NC(=O)/C(=C/c2cnn3c(NC4CC4)cc(NC(=O)C4CC4)nc23)N1 [Example L2] | 
6.24 | 5.79 |  |  | O=C1NC(=O)/C(=C/c2cnn3c(NC4CCNC4)cc(Nc4cccc(Cl)c4)nc23)N1 (stereo not drawn) [Example P6] | 
 |  | > 6.00 | < 5.60 | CCN1CCC(Nc2cc(Nc3cccc(Cl)c3)nc3c(/C=C4\NC(=O)NC4=O)cnn23)CC1 [Example W5] | 
 |  | > 8.00 | 5.71 | C[C@@H](Nc1cc(NC2CC2)n2ncc(/C=C3\NC(=O)NC3=O)c2n1)C1CC1 [Example X2] | 
 |  | > 6.00 | 5.65 | O=C1NC(=O)/C(=C/c2cnn3c(SCc4ccccc4)cc(Nc4cccc(Cl)c4)nc23)N1 [Example X5] | 
 |  | > 7.00 | < 5.60 | CC(=O)Nc1cccc(Nc2cc(NCC3CC3)n3ncc(/C=C4\NC(=O)NC4=O)c3n2)c1 [Example Y1] | 
 |  | > 8.00 | < 5.60 | CNS(=O)(=O)c1cccc(-c2cc(NC3CC3)n3ncc(/C=C4\NC(=O)NC4=O)c3n2)c1 [Example Y3] | 
 |  | > 6.00 | 6.54 | O=C1NC(=O)/C(=C/c2cnn3c(SCc4ccccc4)cc(-c4cccc(Cl)c4)nc23)N1 [Example Y5] | 
 |  | > 6.00 | 6.53 | O=C1NC(=O)/C(=C/c2cnn3c([S+]([O-])Cc4ccccc4)cc(Nc4cccc(Cl)c4)nc23)N1 (stereo not drawn) [Example Z5] | 
